Experimental data: the NIST ThermoML archive (doi:10.1016/j.jct.2016.09.007)
± gives the expanded uncertainty stated by the source.

Assay: xn = mol fraction of the nth substance listed
Settings: 93.2 kPa, Liquid; for mass density: Vibrating tube method; for speed of sound: Frequency=3 MHz, Sing-around technique in a fixed-path interferometer

Work on `CCCC(=O)[O-].CCCC[NH3+]` [n-butylammonium butanoate] + CCO yielded a mass density (303.15 K, x1 = 0.0512) of 805.829 ± 4 kg/m3, a mass density (303.15 K, x1 = 0.1009) of 823.986 ± 4 kg/m3 and a mass density (303.15 K, x1 = 0.1503) of 838.406 ± 4 kg/m3. For the same compound, the mass density (303.15 K, x1 = 0.1994) was 850.551 ± 4 kg/m3, the mass density (303.15 K, x1 = 0.2504) was 860.912 ± 4 kg/m3 and the mass density (303.15 K, x1 = 0.2982) was 869.017 ± 4 kg/m3. The mass density (303.15 K, x1 = 0.3495) was 876.505 ± 4 kg/m3, the mass density (303.15 K, x1 = 0.399) was 882.862 ± 4 kg/m3 and the mass density (303.15 K, x1 = 0.4372) was 887.284 ± 4 kg/m3. It also gave a mass density (303.15 K, x1 = 0.4992) of 893.396 ± 4 kg/m3, a mass density (303.15 K, x1 = 0.547) of 897.636 ± 4 kg/m3 and a mass density (303.15 K, x1 = 0.6017) of 901.834 ± 4 kg/m3. For the same compound, the mass density (303.15 K, x1 = 0.649) was 905.237 ± 4 kg/m3, the mass density (303.15 K, x1 = 0.6917) was 907.983 ± 4 kg/m3 and the mass density (303.15 K, x1 = 0.7436) was 911.071 ± 4 kg/m3. It also gave a mass density (303.15 K, x1 = 0.7901) of 913.616 ± 4 kg/m3, a mass density (303.15 K, x1 = 0.8493) of 916.446 ± 4 kg/m3 and a mass density (303.15 K, x1 = 0.8904) of 918.232 ± 4 kg/m3. It also gave a mass density (303.15 K, x1 = 0.94) of 920.395 ± 4 kg/m3, a mass density (303.15 K, x1 = 1) of 922.217 ± 4 kg/m3 and a speed of sound (308.15 K, x1 = 0.0512) of 1148.2 ± 5.2 m/s. For the same compound, the speed of sound (308.15 K, x1 = 0.1009) was 1177 ± 5.2 m/s, the speed of sound (308.15 K, x1 = 0.1503) was 1201.1 ± 5.2 m/s and the speed of sound (308.15 K, x1 = 0.1994) was 1222.2 ± 5.2 m/s. The speed of sound (308.15 K, x1 = 0.2504) was 1240.8 ± 5.2 m/s, the speed of sound (308.15 K, x1 = 0.2982) was 1255.7 ± 5.2 m/s and the speed of sound (308.15 K, x1 = 0.3495) was 1269.7 ± 5.2 m/s. For the same compound, the speed of sound (308.15 K, x1 = 0.399) was 1282 ± 5.2 m/s, the speed of sound (308.15 K, x1 = 0.4372) was 1290.5 ± 5.2 m/s and the speed of sound (308.15 K, x1 = 0.4992) was 1302.6 ± 5.2 m/s. It also gave a speed of sound (308.15 K, x1 = 0.547) of 1311.2 ± 5.2 m/s, a speed of sound (308.15 K, x1 = 0.6017) of 1319.9 ± 5.2 m/s and a speed of sound (308.15 K, x1 = 0.649) of 1326.9 ± 5.2 m/s. It also gave a speed of sound (308.15 K, x1 = 0.6917) of 1333 ± 5.2 m/s, a speed of sound (308.15 K, x1 = 0.7436) of 1339.9 ± 5.2 m/s and a speed of sound (308.15 K, x1 = 0.7901) of 1345.9 ± 5.2 m/s. It also gave a speed of sound (308.15 K, x1 = 0.8493) of 1352.9 ± 5.3 m/s, a speed of sound (308.15 K, x1 = 0.8904) of 1357.7 ± 5.3 m/s and a speed of sound (308.15 K, x1 = 0.94) of 1364 ± 5.3 m/s. For the same compound, the speed of sound (308.15 K, x1 = 1) was 1371.5 ± 5.3 m/s, the mass density (308.15 K, x1 = 0.0512) was 801.613 ± 4 kg/m3 and the mass density (308.15 K, x1 = 0.1009) was 819.912 ± 4 kg/m3. For the same compound, the mass density (308.15 K, x1 = 0.1503) was 834.444 ± 4 kg/m3, the mass density (308.15 K, x1 = 0.1994) was 846.681 ± 4 kg/m3 and the mass density (308.15 K, x1 = 0.2504) was 857.053 ± 4 kg/m3. For the same compound, the mass density (308.15 K, x1 = 0.2982) was 865.27 ± 4 kg/m3, the mass density (308.15 K, x1 = 0.3495) was 872.836 ± 4 kg/m3 and the mass density (308.15 K, x1 = 0.399) was 879.217 ± 4 kg/m3. It also gave a mass density (308.15 K, x1 = 0.4372) of 883.704 ± 4 kg/m3, a mass density (308.15 K, x1 = 0.4992) of 889.863 ± 4 kg/m3 and a mass density (308.15 K, x1 = 0.547) of 894.139 ± 4 kg/m3. For the same compound, the mass density (308.15 K, x1 = 0.6017) was 898.348 ± 4 kg/m3, the mass density (308.15 K, x1 = 0.649) was 901.798 ± 4 kg/m3 and the mass density (308.15 K, x1 = 0.6917) was 904.574 ± 4 kg/m3. For the same compound, the mass density (308.15 K, x1 = 0.7436) was 907.692 ± 4 kg/m3, the mass density (308.15 K, x1 = 0.7901) was 910.264 ± 4 kg/m3 and the mass density (308.15 K, x1 = 0.8493) was 913.124 ± 4 kg/m3. For the same compound, the mass density (308.15 K, x1 = 0.8904) was 914.921 ± 4 kg/m3, the mass density (308.15 K, x1 = 0.94) was 917.09 ± 4 kg/m3 and the mass density (308.15 K, x1 = 1) was 918.88 ± 4 kg/m3. It also gave a speed of sound (313.15 K, x1 = 0.0512) of 1131.5 ± 5.2 m/s, a speed of sound (313.15 K, x1 = 0.1009) of 1160.4 ± 5.2 m/s and a speed of sound (313.15 K, x1 = 0.1503) of 1184.5 ± 5.2 m/s. For the same compound, the speed of sound (313.15 K, x1 = 0.1994) was 1205.7 ± 5.2 m/s, the speed of sound (313.15 K, x1 = 0.2504) was 1224.2 ± 5.2 m/s and the speed of sound (313.15 K, x1 = 0.2982) was 1239.2 ± 5.2 m/s. For the same compound, the speed of sound (313.15 K, x1 = 0.3495) was 1253.3 ± 5.2 m/s, the speed of sound (313.15 K, x1 = 0.399) was 1265.5 ± 5.2 m/s and the speed of sound (313.15 K, x1 = 0.4372) was 1274.1 ± 5.2 m/s. It also gave a speed of sound (313.15 K, x1 = 0.4992) of 1286.2 ± 5.2 m/s, a speed of sound (313.15 K, x1 = 0.547) of 1294.8 ± 5.2 m/s and a speed of sound (313.15 K, x1 = 0.6017) of 1303.6 ± 5.2 m/s. It also gave a speed of sound (313.15 K, x1 = 0.649) of 1310.6 ± 5.2 m/s, a speed of sound (313.15 K, x1 = 0.6917) of 1316.6 ± 5.2 m/s and a speed of sound (313.15 K, x1 = 0.7436) of 1323.4 ± 5.2 m/s. For the same compound, the speed of sound (313.15 K, x1 = 0.7901) was 1329.3 ± 5.2 m/s, the speed of sound (313.15 K, x1 = 0.8493) was 1336.2 ± 5.3 m/s and the speed of sound (313.15 K, x1 = 0.8904) was 1340.7 ± 5.3 m/s. For the same compound, the speed of sound (313.15 K, x1 = 0.94) was 1346.7 ± 5.3 m/s, the speed of sound (313.15 K, x1 = 1) was 1353.6 ± 5.3 m/s and the mass density (313.15 K, x1 = 0.0512) was 797.355 ± 4 kg/m3. For the same compound, the mass density (313.15 K, x1 = 0.1009) was 815.802 ± 4 kg/m3, the mass density (313.15 K, x1 = 0.1503) was 830.445 ± 4 kg/m3 and the mass density (313.15 K, x1 = 0.1994) was 842.738 ± 4 kg/m3. For the same compound, the mass density (313.15 K, x1 = 0.2504) was 853.31 ± 4 kg/m3, the mass density (313.15 K, x1 = 0.2982) was 861.491 ± 4 kg/m3 and the mass density (313.15 K, x1 = 0.3495) was 869.15 ± 4 kg/m3. For the same compound, the mass density (313.15 K, x1 = 0.399) was 875.544 ± 4 kg/m3, the mass density (313.15 K, x1 = 0.4372) was 880.105 ± 4 kg/m3 and the mass density (313.15 K, x1 = 0.4992) was 886.306 ± 4 kg/m3. The mass density (313.15 K, x1 = 0.547) was 890.621 ± 4 kg/m3, the mass density (313.15 K, x1 = 0.6017) was 894.849 ± 4 kg/m3 and the mass density (313.15 K, x1 = 0.649) was 898.346 ± 4 kg/m3. For the same compound, the mass density (313.15 K, x1 = 0.6917) was 901.145 ± 4 kg/m3, the mass density (313.15 K, x1 = 0.7436) was 904.29 ± 4 kg/m3 and the mass density (313.15 K, x1 = 0.7901) was 906.897 ± 4 kg/m3. It also gave a mass density (313.15 K, x1 = 0.8493) of 909.786 ± 4 kg/m3, a mass density (313.15 K, x1 = 0.8904) of 911.604 ± 4 kg/m3 and a mass density (313.15 K, x1 = 0.94) of 913.789 ± 4 kg/m3. For the same compound, the mass density (313.15 K, x1 = 1) was 915.567 ± 4 kg/m3.
